# From ChEMBL document CHEMBL5058646 (2022)
# Legend:
# [1] = GPCRScan assay: inhibition of GABA/PBR; design: species or system Rattus norvegicus; radioligand conc. used [nm] 0.3 – 2.0, parental cells brain tissue
# [2] = biological target: Adenosine receptor A1 (Homo sapiens) (UniProt P30542); assay: (§1) GPCRScan assay: inhibition of A1; design: radioligand conc. used [nm] 5.0, parental cells HEKT; settings: Compound concentration 10.0 uM
# Adenosine receptor A1 = Adenosine receptor A1 (Homo sapiens, UniProt P30542); assay: as §1; design: radioligand conc. used [nm] 5.0, parental cells HEKT
# [3] = biological target: Calcium/calmodulin-dependent protein kinase type 1G (Homo sapiens) (UniProt Q96NX5); assay: CAMK1G SGC Tm panel (DSF); settings: Compound concentration 20.0 uM
# [4] = biological target: Serine/threonine-protein kinase Chk2 (Homo sapiens) (UniProt O96017); assay: CHEK2 SGC Tm panel (DSF); settings: Compound concentration 20.0 uM
# [5] = biological target: Serine/threonine-protein kinase DCLK1 (Homo sapiens) (UniProt O15075); assay: DCAMKL1 SGC Tm panel (DSF); settings: Compound concentration 20.0 uM
# [6] = biological target: Myotonin-protein kinase (Homo sapiens) (UniProt Q09013); assay: DMPK1 SGC Tm panel (DSF); settings: Compound concentration 20.0 uM
# [7] = biological target: Ephrin type-A receptor 7 (Homo sapiens) (UniProt Q15375); assay: EPHA7 SGC Tm panel (DSF); settings: Compound concentration 20.0 uM
# [8] = biological target: Fibroblast growth factor receptor 3 (Homo sapiens) (UniProt P22607); assay: FGFR3 SGC Tm panel (DSF); settings: Compound concentration 20.0 uM
# [9] = biological target: Dual specificity mitogen-activated protein kinase kinase 4 (Homo sapiens) (UniProt P45985); assay: MAP2K4 SGC Tm panel (DSF); settings: Compound concentration 20.0 uM
# [10] = biological target: Serine/threonine-protein kinase VRK1 (Homo sapiens) (UniProt Q99986); assay: VRK1 SGC Tm panel (DSF); settings: Compound concentration 20.0 uM
# [11] = biological target: 5-hydroxytryptamine receptor 1A (Homo sapiens) (UniProt P08908); settings: Compound concentration 10.0 uM
# [12] = biological target: Alpha-1A adrenergic receptor (Homo sapiens) (UniProt P35348); settings: Compound concentration 10.0 uM
# [13] = biological target: Alpha-2B adrenergic receptor (Homo sapiens) (UniProt P18089); settings: Compound concentration 10.0 uM
# [14] = biological target: Beta-3 adrenergic receptor (Homo sapiens, UniProt P13945); settings: Compound concentration 10.0 uM
# [15] = biological target: T1, Transcriptional regulator Kaiso (Homo sapiens) (UniProt Q86T24); settings: SUD4, Compound concentration 1.0 uM
# T1 sequence (whole entry): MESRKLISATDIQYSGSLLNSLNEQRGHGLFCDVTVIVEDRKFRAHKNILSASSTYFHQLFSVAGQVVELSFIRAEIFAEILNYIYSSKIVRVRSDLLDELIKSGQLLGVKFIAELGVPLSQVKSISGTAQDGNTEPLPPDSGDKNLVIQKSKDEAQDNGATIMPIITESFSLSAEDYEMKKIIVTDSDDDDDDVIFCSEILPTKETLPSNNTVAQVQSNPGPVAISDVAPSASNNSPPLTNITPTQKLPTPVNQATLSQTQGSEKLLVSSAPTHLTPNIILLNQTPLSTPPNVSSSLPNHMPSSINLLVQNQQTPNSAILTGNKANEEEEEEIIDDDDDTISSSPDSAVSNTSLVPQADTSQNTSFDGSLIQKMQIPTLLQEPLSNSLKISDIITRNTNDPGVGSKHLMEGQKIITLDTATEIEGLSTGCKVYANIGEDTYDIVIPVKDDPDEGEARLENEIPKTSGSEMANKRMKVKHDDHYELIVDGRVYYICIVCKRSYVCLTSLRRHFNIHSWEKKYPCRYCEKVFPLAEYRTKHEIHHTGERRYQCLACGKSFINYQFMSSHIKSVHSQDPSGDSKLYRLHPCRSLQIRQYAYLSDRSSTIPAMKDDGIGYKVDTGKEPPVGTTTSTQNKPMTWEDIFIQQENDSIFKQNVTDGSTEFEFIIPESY
# [16] = biological target: Protein archease (Homo sapiens) (UniProt Q8IWT0); settings: SUD4, Compound concentration 1.0 uM
# [17] = biological target: T2, Telomere zinc finger-associated protein (Homo sapiens) (UniProt P10074); settings: SUD4, Compound concentration 1.0 uM
# T2 sequence (whole entry): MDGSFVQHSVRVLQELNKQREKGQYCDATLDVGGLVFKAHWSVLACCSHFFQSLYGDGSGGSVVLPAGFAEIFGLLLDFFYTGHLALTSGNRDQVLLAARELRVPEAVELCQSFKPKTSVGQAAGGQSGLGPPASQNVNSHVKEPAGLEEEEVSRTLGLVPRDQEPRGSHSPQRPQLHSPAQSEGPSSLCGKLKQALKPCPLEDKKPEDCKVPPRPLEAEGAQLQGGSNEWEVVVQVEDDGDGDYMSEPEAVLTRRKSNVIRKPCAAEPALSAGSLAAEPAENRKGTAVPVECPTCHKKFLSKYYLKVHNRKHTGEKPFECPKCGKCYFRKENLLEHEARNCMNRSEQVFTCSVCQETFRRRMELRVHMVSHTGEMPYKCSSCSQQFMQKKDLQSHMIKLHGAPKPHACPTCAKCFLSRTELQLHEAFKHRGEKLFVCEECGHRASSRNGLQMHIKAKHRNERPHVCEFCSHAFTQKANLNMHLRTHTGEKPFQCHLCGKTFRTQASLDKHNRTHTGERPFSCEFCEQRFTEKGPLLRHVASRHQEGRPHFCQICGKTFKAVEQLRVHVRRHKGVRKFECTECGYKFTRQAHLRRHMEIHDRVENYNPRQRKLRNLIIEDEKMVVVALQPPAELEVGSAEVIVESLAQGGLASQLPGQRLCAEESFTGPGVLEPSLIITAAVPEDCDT
# [18] = biological target: T2, Telomere zinc finger-associated protein (Homo sapiens); settings: OCI-Ly1, Compound concentration 1.0 uM
# Sequence of Adenosine receptor A1 (P30542 whole entry): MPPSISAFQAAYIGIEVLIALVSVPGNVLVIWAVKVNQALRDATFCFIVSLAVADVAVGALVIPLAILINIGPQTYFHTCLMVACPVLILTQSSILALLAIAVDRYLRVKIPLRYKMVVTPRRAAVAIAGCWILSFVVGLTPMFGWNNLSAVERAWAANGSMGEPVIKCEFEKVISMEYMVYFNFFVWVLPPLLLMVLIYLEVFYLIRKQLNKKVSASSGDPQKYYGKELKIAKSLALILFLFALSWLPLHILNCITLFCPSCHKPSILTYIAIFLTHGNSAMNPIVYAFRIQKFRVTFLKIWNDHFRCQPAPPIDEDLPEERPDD
# Sequence of Adenosine receptor A1 (Homo sapiens) (P30542 whole entry): as above
# Sequence of Serine/threonine-protein kinase Chk2 (Homo sapiens) (O96017 whole entry): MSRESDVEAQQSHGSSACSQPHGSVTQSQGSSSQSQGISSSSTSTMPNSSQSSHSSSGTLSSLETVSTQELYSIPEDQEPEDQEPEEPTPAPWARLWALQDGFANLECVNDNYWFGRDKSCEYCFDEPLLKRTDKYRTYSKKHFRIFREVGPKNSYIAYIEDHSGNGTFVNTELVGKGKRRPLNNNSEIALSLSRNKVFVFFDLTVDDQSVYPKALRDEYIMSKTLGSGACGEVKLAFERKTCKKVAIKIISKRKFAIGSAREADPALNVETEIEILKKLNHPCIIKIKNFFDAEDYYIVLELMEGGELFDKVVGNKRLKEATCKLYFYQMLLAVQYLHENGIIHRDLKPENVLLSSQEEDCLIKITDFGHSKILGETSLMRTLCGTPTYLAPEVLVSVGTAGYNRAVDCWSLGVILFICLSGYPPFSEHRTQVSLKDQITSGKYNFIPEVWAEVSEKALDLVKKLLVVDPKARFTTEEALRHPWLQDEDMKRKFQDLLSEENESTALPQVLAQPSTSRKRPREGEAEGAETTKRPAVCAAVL
# Sequence of Myotonin-protein kinase (Homo sapiens) (Q09013 whole entry): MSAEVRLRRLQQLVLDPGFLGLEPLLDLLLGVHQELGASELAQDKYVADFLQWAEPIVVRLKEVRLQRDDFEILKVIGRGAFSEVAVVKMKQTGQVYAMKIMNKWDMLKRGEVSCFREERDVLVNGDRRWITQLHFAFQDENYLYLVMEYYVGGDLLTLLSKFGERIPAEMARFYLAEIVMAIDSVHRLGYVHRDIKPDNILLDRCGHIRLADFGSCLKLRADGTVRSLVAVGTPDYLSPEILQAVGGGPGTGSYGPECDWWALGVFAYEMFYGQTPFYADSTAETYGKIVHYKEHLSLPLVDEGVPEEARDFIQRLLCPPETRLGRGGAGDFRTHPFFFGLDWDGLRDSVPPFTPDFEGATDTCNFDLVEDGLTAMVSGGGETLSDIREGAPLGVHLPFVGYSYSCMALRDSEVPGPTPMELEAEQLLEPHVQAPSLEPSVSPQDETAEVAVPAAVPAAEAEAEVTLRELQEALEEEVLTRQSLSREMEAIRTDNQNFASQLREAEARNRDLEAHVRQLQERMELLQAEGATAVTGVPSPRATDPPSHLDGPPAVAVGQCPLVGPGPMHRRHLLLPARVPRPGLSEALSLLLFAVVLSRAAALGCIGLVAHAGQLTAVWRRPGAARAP
# Sequence of 5-hydroxytryptamine receptor 1A (Homo sapiens) (P08908 whole entry): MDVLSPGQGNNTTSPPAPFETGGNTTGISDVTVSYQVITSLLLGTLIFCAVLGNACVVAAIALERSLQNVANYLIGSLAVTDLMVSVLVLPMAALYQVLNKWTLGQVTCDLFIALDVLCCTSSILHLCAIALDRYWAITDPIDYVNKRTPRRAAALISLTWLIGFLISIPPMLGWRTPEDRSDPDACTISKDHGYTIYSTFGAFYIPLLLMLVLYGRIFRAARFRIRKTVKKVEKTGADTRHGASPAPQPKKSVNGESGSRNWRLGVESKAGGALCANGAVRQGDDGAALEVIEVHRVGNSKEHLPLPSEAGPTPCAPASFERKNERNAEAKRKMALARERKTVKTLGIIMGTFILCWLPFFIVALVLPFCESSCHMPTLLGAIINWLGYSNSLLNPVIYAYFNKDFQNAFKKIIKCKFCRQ
# Sequence of Serine/threonine-protein kinase DCLK1 (Homo sapiens) (O15075 whole entry): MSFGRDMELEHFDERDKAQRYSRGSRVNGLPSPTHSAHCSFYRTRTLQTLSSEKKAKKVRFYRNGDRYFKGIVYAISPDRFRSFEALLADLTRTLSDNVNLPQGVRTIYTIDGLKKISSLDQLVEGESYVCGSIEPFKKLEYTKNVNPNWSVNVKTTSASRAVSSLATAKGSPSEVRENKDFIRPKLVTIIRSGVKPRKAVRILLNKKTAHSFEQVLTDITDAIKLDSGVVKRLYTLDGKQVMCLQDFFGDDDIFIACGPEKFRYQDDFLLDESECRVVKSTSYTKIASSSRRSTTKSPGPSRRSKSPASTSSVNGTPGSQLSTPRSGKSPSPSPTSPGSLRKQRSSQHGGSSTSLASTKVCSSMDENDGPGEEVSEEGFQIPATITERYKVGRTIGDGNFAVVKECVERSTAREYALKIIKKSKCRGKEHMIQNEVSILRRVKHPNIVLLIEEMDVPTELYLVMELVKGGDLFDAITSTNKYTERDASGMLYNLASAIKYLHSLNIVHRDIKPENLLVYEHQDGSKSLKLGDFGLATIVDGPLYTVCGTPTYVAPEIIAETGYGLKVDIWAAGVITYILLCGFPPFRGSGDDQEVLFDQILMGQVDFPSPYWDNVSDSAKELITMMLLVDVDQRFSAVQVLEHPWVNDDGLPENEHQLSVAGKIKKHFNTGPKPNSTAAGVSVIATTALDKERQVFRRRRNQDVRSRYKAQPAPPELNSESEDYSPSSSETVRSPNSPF
# Sequence of Alpha-1A adrenergic receptor (Homo sapiens) (P35348 whole entry): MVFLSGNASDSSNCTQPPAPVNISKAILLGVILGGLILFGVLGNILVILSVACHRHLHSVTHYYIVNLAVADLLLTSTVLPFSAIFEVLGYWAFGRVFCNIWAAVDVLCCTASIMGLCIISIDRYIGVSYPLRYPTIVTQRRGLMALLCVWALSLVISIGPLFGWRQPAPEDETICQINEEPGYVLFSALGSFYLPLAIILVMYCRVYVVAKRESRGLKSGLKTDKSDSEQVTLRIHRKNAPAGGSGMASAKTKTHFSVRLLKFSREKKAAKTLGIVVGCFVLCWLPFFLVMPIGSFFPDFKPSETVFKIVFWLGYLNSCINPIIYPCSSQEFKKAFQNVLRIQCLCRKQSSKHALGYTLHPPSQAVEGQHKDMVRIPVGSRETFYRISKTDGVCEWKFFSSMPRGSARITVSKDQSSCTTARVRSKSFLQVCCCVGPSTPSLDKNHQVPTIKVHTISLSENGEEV
# Sequence of Protein archease (Homo sapiens) (Q8IWT0 whole entry): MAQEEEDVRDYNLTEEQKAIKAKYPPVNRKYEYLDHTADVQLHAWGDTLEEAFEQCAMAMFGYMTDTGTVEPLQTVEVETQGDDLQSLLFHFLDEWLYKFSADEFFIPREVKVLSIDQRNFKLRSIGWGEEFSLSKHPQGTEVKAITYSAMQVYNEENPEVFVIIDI
# Sequence of Fibroblast growth factor receptor 3 (Homo sapiens) (P22607 23-806 limits assumed): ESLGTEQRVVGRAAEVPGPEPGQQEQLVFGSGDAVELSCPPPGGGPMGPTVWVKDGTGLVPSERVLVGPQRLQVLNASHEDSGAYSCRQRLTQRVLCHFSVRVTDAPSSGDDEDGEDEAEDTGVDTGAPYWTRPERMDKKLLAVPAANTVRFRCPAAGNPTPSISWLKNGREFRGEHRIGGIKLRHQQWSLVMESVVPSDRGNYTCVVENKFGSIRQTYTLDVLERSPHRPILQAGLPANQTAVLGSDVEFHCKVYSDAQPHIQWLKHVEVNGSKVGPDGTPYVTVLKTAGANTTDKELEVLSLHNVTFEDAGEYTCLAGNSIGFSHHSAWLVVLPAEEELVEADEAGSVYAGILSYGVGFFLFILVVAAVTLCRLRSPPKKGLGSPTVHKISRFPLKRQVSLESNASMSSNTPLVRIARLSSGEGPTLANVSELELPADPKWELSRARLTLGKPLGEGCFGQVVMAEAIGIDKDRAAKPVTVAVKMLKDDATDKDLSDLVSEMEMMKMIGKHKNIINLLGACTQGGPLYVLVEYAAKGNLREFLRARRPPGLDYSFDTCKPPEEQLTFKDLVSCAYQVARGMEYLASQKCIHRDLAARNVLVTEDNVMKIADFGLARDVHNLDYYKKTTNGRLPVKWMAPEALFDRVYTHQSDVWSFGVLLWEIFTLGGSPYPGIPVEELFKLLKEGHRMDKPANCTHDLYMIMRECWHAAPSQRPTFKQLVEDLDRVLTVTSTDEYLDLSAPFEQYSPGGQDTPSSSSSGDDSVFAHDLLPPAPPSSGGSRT
# Sequence of Beta-3 adrenergic receptor (P13945 whole entry, looked up): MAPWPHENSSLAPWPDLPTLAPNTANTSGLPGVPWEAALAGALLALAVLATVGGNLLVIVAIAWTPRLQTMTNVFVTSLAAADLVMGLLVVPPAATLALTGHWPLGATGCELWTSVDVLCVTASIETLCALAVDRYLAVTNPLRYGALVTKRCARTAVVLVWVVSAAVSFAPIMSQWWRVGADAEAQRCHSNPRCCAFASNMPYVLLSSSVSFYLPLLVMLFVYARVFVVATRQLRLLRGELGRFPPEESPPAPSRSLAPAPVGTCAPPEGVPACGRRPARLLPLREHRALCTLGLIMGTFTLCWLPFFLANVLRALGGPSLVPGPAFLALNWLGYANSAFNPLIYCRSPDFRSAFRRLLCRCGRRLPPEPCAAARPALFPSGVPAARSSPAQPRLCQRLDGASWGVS
# Sequence of Alpha-2B adrenergic receptor (Homo sapiens) (P18089 whole entry): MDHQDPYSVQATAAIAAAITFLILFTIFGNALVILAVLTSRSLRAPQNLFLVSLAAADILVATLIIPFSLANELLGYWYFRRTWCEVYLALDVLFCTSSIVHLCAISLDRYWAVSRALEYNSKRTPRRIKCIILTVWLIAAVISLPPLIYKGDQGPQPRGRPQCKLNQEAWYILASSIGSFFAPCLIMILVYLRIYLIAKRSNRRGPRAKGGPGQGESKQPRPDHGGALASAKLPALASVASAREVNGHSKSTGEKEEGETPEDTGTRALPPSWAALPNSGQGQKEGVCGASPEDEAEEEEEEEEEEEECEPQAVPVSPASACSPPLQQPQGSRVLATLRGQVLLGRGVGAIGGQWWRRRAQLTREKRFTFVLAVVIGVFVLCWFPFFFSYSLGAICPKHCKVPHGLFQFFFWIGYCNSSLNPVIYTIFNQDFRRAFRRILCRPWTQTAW
structure (smiles),measurement,setting,value
C[C@@H]1CN(c2ncc(Cl)c(Nc3ccc4c(c3)n(CCC(C)(C)O)c(=O)n4C)n2)C[C@H](C)C1(F)F,Ki,[1],1.11 µM
same,pKi,[1],6.01
same,inhibition,[2],93.1%
same,Ki,Adenosine receptor A1; read-out: Ki,1.63 µM
same,Ki,Adenosine receptor A1; read-out: pKi (converted),1.1 µM
same,Tm,[3],44 °C
same,Tm,[4],44 °C
same,Tm,[5],42 °C
same,Tm,[6],50 °C
same,Tm,[7],48 °C
same,Tm,[8],42 °C
same,Tm,[9],41 °C
same,Tm,[10],46 °C
same,inhibition,[11],5.99%
same,inhibition,[12],7.7%
same,inhibition,[13],7.28%
same,inhibition,[14],65.3%
same,LogFC,[15],0.0744
same,LogFC,[16],0.104
same,LogFC,[17],0.0324
same,LogFC,[18],0.0229
